Structures can show the parent of a compound that is named as a salt.
| SMILES | melting point |
| --- | --- |
| CCN1CCN(c2nc(COc3ccc(OC)cc3)cc3ccccc23)CC1 (as salt: hydrochloride) [Example 424, 1-(4-ethylpiperazin-1-yl)-3-(4-methoxyphenoxymethyl)isoquinoline Hydrochloride] | 101 to 102 °C |
| CCN1CCN(c2nc(-c3ccc(OCCO)cc3OC)cc3ccccc23)CC1 (as salt: hydrochloride) [Example 425, 1-(4-ethylpiperazin-1-yl)-3-[4-(2-hydroxyethoxy)-2-methoxyphenyl]isoquinoline] | 140 to 142 °C |
| CCN1CCN(c2nc(-c3ccc(OC4CCCCC4O)cc3)cc3ccccc23)CC1 (stereo not shown) (as salt: hydrochloride) [Example 426, 1-(4-ethylpiperazin-1-yl)-3-[4-(2-hydroxycyclohexyloxy)phenyl]isoquinoline Hydrochloride] | 143 to 144 °C |
| CCN1CCN(c2nc(-c3ccc(OC)cc3)nc3ccccc23)CC1 (as salt: hydrochloride) [Example 427, 4-(4-ethylpiperazin-1-yl)-2-(4-methoxyphenyl)quinazoline Dihydrochloride] | 224.5 to 226 °C (dec.) |
| CCN1CCN(c2nc(-c3ccc(OC)cc3)cc3ccncc23)CC1 (as salt: hydrochloride) [Example 428, 1-(4-ethylpiperazin-1-yl)-3-(4-methoxyphenyl)-7-azaisoquinoline] | 222 °C (dec.) |
| CCN1CCN(c2nc(-c3ccc(CCCO)nc3)cc3ccsc23)CC1 (as salt: hydrochloride) [Example 429, 7-(4-ethylpiperazin-1yl)-5-[2-(3-hydroxypropyl)pyridin-5-yl]thieno[2,3-c]pyridine hydrochloride] | 204 to 205 °C |
| CCN1CCN(c2nc(/C=C/c3cccc(OCCO)c3)cc3ccsc23)CC1 (as salt: hydrochloride) [Example 430, 7-(4-ethylpiperazin-1-yl)-5-[3-(2-hydroxyethoxy)styryl]thieno [2,3-c]pyridine hydrochloride] | 98 to 99 °C |
| CCN1CCN(c2nc(/C=C/c3ccc(OCCO)cc3)cc3ccsc23)CC1 (as salt: hydrochloride) [Example 431, 7-(4-ethylpiperazin-1-yl)-5-[4-(2-hydroxyethoxy)styryl]thieno[2,3-c]pyridine hydrochloride] | 143 to 145 °C |
| CCN1CCN(c2nc(-c3ccc(CCCO)cc3)cc3ccsc23)CC1 (as salt: hydrochloride) [Example 432, 7-(4-ethylpiperazin-1-yl)-5-[4-(3-hydroxypropyl)phenyl]thieno[2,3-c]pyridine hydrochloride] | 112 to 113 °C |
| CCN1CCN(c2nc(-c3ccc(CCCO)c(OC)c3)cc3ccsc23)CC1 (as salt: hydrochloride) [Example 433, 7-(4-ethylpiperazin-1-yl)-5-[4-(3-hydroxypropyl)-3-methoxyphenyl]thieno[2,3-c]-pyridine hydrochloride] | 114 to 115 °C |
| CCN1CCN(c2nc(-c3ccc(OCCCO)cc3)cc3ccsc23)CC1 (as salt: hydrochloride) [Example 434, 7-(4-ethylpiperazin-1-yl)-5-[4-(3-hydroxypropoxy)phenyl]thieno[2,3-c]pyridine dihydrochloride] | 126 to 127 °C |
| CCN1CCN(c2nc(-c3ccc(OC[C@@H](C)O)cc3)cc3ccsc23)CC1 (as salt: hydrochloride) [Example 435, 7-(4-ethylpiperazin-1-yl)-5-[4-(2-hydroxypropoxy)phenyl]thieno[2,3-c]pyridine dihydrochloride] | 126 to 127 °C |
| CCN1CCN(c2nc(-c3ccc(CC(C)O)cc3)cc3ccsc23)CC1 (stereo not shown) (as salt: hydrochloride) [Example 436, 7-(4-ethylpiperazin-1-yl)-5-[4-(2-hydroxypropyl)phenyl]thieno[2,3-c]pyridine dihydrochloride] | 66 to 67 °C |

Source: patent US6875761B2 (Eisai Co., Ltd., priority 1997, dated 2005)
